Reference: PMC12592418, “Therapeutic potential of red bean (phaseolus vulgaris) peptides: anticancer, antihypertension, and antioxidant activities” (Scientific Reports, 2025)
No end group written: not given here.

Key:
CaCO2 cells = test: MTT cell viability assay, CaCO2; assay type: cell-based, human; settings: synthetic peptide 100 µg/ml, 24 h, mean ± SD, n = 3
Protocol: (§1) CaCO2, HepG2, MCF-7, NCI-H460, SiHa, SW620, and Vero cells were obtained from the American Type Culture Collection (ATCC, Manassas, VA, USA). Cells were cultured in Dulbecco’s Modified Eagle’s Medium (DMEM; PAA, Pasching, Austria), supplemented with 10% (v/v) fetal bovine serum (Gibco, South America), 10 mM HEPES (HyClone, Utah, USA), 2 mM L-glutamine, and 100 U/mL penicillin and 100 µg/mL streptomycin. Cultures were maintained at 37 °C in a humidified atmosphere containing 5% CO₂.
(§2) The anticancer activity of protein hydrolysates and synthetic peptides against CaCO2, HepG2, MCF-7, NCI-H460, SiHa, SW620, and Vero cells were evaluated using the MTT assay. Cells were seeded into 96-well plates (Nunc™, Roskilde, Denmark) at a density of 2 × 10⁴ cells per well, and allowed to adhere. Following seeding, cells were treated with 100 µg/mL of protein hydrolysates or synthetic peptides for 24 h, while untreated cells served as controls. After 24 h, 20 µL of MTT solution (5 mg/mL; Sigma, St. Louis, MO, USA) was added to each well and incubated for an additional 3 h. The supernatant was then removed, and 100 µL of DMSO was added to each well to dissolve the formazan crystals. Optical density (OD) was measured at 540 nm using a microplate reader (Rayto RT-2100 C, China). Cell viability was calculated using the equation: (OD of treated cells/OD of untreated cells) × 100.
(§3) The IC50 values were calculated from a fitted semi-log response curve, plotting cell viability percentages against concentration. These values were determined using the AAT-Bioquest IC50 calculator (https://www.aatbio.com/tools/ic50-calculator).

HepG2 cells = test: MTT cell viability assay, HepG2; assay type: cell-based, human; settings: synthetic peptide 100 µg/ml, 24 h, mean ± SD, n = 3
Protocol: as §1, §2, §3

MCF-7 cells = test: MTT cell viability assay, MCF-7; assay type: cell-based, human; settings: synthetic peptide 100 µg/ml, 24 h, mean ± SD, n = 3
Protocol: as §1, §2, §3

NCI-H460 cells = test: MTT cell viability assay, NCI-H460; assay type: cell-based, human; settings: synthetic peptide 100 µg/ml, 24 h, mean ± SD
Protocol: as §1, §2, §3

SiHa cells = test: MTT cell viability assay, SiHa; assay type: cell-based, human; settings: synthetic peptide 100 µg/ml, 24 h, mean ± SD, n = 3
Protocol: as §1, §2, §3

SW620 cells = test: MTT cell viability assay, SW620; assay type: cell-based, human; settings: synthetic peptide 100 µg/ml, 24 h, mean ± SD
Protocol: as §1, §2, §3

Vero cells = test: MTT cell viability assay, Vero; assay type: cell-based, monkey; settings: synthetic peptide 100 µg/ml, 24 h, mean ± SD, n = 3
Protocol: as §1, §2, §3

[1] = system: angiotensin-converting enzyme (ACE); test: ACE inhibitory activity assay (HHL substrate); assay type: biochemical; settings: peptide 100 µg/ml, ACE 0.2 U/mL, 5 mM HHL, phosphate buffer pH 6.8, 37 °C, mean ± SD, n = 3; SD
Protocol: The method utilized here is a spectrophotometric method based on the commonly used method introduced by Cushman and Cheung (1971)[45]. The 5 ul of sample was preincubated with 45 ul of ACE enzyme (0.2 U/mL) in 100 mM Phosphate buffer (pH 6.8) and incubated for 10 min at 37 °C. Enzyme activity was assayed by monitoring the hydrolysis of hippuryl-L-histidyl-L-leucine (HHL). After adding 50 µL of a 5 mM HHL substrate solution, the increase in absorbance at 405 nm was measured every minute for 15 min at 37 °C using a 96-well microplate reader. The initial velocity was determined from the linear portion of the curve, and the inhibitory activity was expressed as a percentage calculated using the following equation:
% inhibition = (1-(B-b)/(A-a)) x 100,
where A is an initial velocity of the control reaction with enzyme (control), a is an initial velocity of the control reaction without enzyme (control blank), B is an initial velocity of the enzyme reaction with sample and b is an initial velocity of the reaction with sample but without enzyme (sample blank).

[2] = ABTS radical scavenging assay; assay type: physicochemical; settings: peptide 100 µg/ml, 5 min in the dark, absorbance 750 nm, mean ± SD, n = 3
Protocol: Radical scavenging antioxidant activity was determined according to the ABTS radical scavenging activity following the method described by Re et al.[46] with slight modifications. Briefly, the solution of ABTS radical was prepared from the reaction between 7 mM ABTS (2,2-azino-bis (3-ethylbenzothiazoline-6-sulphonic acid) diammonium salt) and 2.45 mM ammonium persulphate. The resulting ABTS solution was diluted with distilled water to achieve an optical density of 0.7 at 750 nm. Then, a sample or standard of 10 µL was mixed with 190 µL of ABTS solution and incubated for 5 min in the dark. The absorbance was measured at 750 nm by a microplate reader (Rayto RT-2100 C, China). Ascorbic acid was used as the standard.

[3] = DPPH radical scavenging assay; assay type: physicochemical; settings: peptide 100 µg/ml, 0.1 mM DPPH, 30 min in the dark, room temperature, absorbance 517 nm, mean ± SD, n = 3
Protocol: The DPPH radical scavenging activity of the sample was evaluated following the protocol by Muangrod et al.[48] with slight modifications. Briefly, 190 µL of 0.1 mM DPPH was mixed with 10 µL of the sample or standard ascorbic acid in each well and incubated at room temperature in the dark for 30 min. The absorbance of the mixture was measured at 517 nm using a microplate reader (Rayto RT-2100 C, China). Ascorbic acid was used as the standard. Results were expressed as micrograms ascorbic acid equivalent (µg AAE g^−1).

[4] = FRAP ferric ion-reducing antioxidant power assay; assay type: physicochemical; settings: peptide 100 µg/ml, 30 min in the dark, absorbance 593 nm, mean ± SD, n = 3
Protocol: The ferric ion-reducing antioxidant power assay was analyzed according to the method by Rumpf et al.[47] with minor modifications. Briefly, the FRAP reagent was prepared from 300 mM sodium acetate (pH 3.6) and 10 mM TPTZ (2,4,6-tris (2-pyridyl)-s-triazine) in 40 mM HCl and 20 mM ferric chloride at the ratio of 10:1:1, respectively. Then, a 10 µL aliquot of the sample or standard was mixed with 190 µL of the FRAP reagent before incubating in the dark for 30 min. The absorbance was measured at 593 nm using a microplate reader (Rayto RT-2100 C, China). Ascorbic acid was used as the standard. Results were expressed as micrograms of ascorbic acid equivalent per gram (µg AAE g^−1).

With SPTPPKNVPF [RB-3] the “Inhibitory percentage, CaCO2” value (CaCO2 cells) was 7.88±0.08%, the “Inhibitory percentage, HepG2” value (HepG2 cells) was 0% and the “Inhibitory percentage, MCF-7” value (MCF-7 cells) was 0%. The “Inhibitory percentage, NCI-H460” value (NCI-H460 cells; n = 3) was 0%, the “Inhibitory percentage, SiHa” value (SiHa cells) was 12.36±0.02% and the “Inhibitory percentage, SW620” value (SW620 cells; n = 3) was 0%. For the same sequence, the “Inhibitory percentage, Vero” value (Vero cells) was 0%, the “Antihypertension (%), percentage inhibition of ACE” value [1] was 20.00±1.02% and the “Antioxidant, ABTS” value [2] was 274.73±0.27 µg ascorbic acid equivalent. For the same sequence, the “Antioxidant, DPPH” value [3] was 227.13±1.55 µg ascorbic acid equivalent and the “Antioxidant, FRAP” value [4] was 58.05±0.09 µg ascorbic acid equivalent.
With GSEIRSTSDDVL [RB-4] the “Inhibitory percentage, CaCO2” value (CaCO2 cells) was 11.27±0.07%, the “Inhibitory percentage, HepG2” value (HepG2 cells) was 0% and the “Inhibitory percentage, MCF-7” value (MCF-7 cells) was 0%. For the same sequence, the “Inhibitory percentage, NCI-H460” value (NCI-H460 cells; n = 3, SD) was 6.08±0.01%, the “Inhibitory percentage, SiHa” value (SiHa cells) was 11.45±0.00% and the “Inhibitory percentage, SW620” value (SW620 cells; n = 3) was 0%. The “Inhibitory percentage, Vero” value (Vero cells) was 0%, the “Antihypertension (%), percentage inhibition of ACE” value [1] was 13.33±0.60% and the “Antioxidant, ABTS” value [2] was 539.58±3.43 µg ascorbic acid equivalent. For the same sequence, the “Antioxidant, DPPH” value [3] was 424.61±1.53 µg ascorbic acid equivalent and the “Antioxidant, FRAP” value [4] was 128.47±0.86 µg ascorbic acid equivalent.
With RGSKQRQKRQW [RB-7] the “Inhibitory percentage, CaCO2” value (CaCO2 cells) was 5.73±0.02%, the “Inhibitory percentage, HepG2” value (HepG2 cells) was 0% and the “Inhibitory percentage, MCF-7” value (MCF-7 cells) was 0%. The “Inhibitory percentage, NCI-H460” value (NCI-H460 cells; n = 3, SD) was 1.74±0.01%, the “Inhibitory percentage, SiHa” value (SiHa cells) was 8.78±0.08% and the “Inhibitory percentage, SW620” value (SW620 cells; n = 3, SD) was 1.47±0.01%. The “Inhibitory percentage, Vero” value (Vero cells) was 0%, the “Antihypertension (%), percentage inhibition of ACE” value [1] was 60.00±1.29% and the “Antioxidant, ABTS” value [2] was 507.53±13.49 µg ascorbic acid equivalent. For the same sequence, the “Antioxidant, DPPH” value [3] was 805.35±5.83 µg ascorbic acid equivalent and the “Antioxidant, FRAP” value [4] was 187.50±1.88 µg ascorbic acid equivalent.
